These results are taken from patent US20090291942A1, “IMIDAZO PYRIDINE DERIVATIVES” (priority 2008, published 2009).

Structures are written as SMILES. Where a name gives a salt, the structure may show the parent alone.

For this test, the target named is T1, human GPR4 (Homo sapiens, UniProt P46093).
T1 construct: expressed in transfected cells
In words: Cell-based assay for human GPR4 activity (pH-induced cAMP formation, HTRF). Particulars: HeLa cells stably expressing human GPR4, pH-induced cAMP formation. The procedure: a) Cell-Based Assay for Human GPR4 Activity
HeLa cells stably expressing human GPR4 were established by transfecting the cells with a construct containing the human GPR4 coding sequence. The cells were grown in DMEM/HAM's F12 medium supplemented with 10% fetal calf serum (FCS), 100 u/ml penicillin, 100 μg/ml streptomycin and 400 μg/ml G418 and 10 mM Hepes pH 8.0. pH-induced formation of cAMP was determined using the HTRF technology as provided by CisBio Inc. The cells were seeded in 384-well plates and cultured for 24 hours at 37° C., 5% CO2 before performing the assay. Medium was removed and 10 μl buffer A (HBS, 10 mM Hepes, pH 8, 2 mM IBMX) was added. For compound testing, buffer A with 2× concentrated compounds was used. Cells were incubated for 15 min at room temperature. 10 μl buffer B (HBS, 30 mM Hepes, specific pH) was added to reach the appropriate final pH for stimulation (see below) and incubation was continued for 15 min at room temperature. […] HBS: 130 mM NaCl, 0.9 mM NaH2PO4, 5.4 mM KCl, 0.8 mM MgSO4, CaCl2 1.8 mM, 25 mM glucose, 10-30 mM Hepes. Adjustment of HBS buffers: Bf A Bf B Final stimulation pH (1 volume buffer A+1 volume buffer B)
Compounds were diluted from fresh stock solutions at 10 mM in DMSO to 2 mM and then used for serial dilutions in DMSO.
(cAMP levels reflect the balance of adenylyl cyclase and phosphodiesterase activity.)

T1 sequence (P46093 whole entry): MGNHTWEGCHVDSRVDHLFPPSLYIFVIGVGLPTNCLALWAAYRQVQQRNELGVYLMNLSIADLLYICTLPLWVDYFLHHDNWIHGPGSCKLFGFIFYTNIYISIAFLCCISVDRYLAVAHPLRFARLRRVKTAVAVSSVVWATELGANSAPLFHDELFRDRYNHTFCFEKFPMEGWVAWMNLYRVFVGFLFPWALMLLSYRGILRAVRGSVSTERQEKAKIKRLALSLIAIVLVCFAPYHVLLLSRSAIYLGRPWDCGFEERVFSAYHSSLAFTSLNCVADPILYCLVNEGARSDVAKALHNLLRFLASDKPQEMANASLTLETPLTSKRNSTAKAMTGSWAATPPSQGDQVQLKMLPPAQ

For `CCc1nc2c(C)cc(C)nc2n1Cc1ccc(C#CCN2CCN(C(C)C)CC2)cc1` [Example 1, 2-Ethyl-3-{4-[3-(4-isopropyl-piperazin-1-yl)-prop-1-ynyl]-benzyl}-5,7-dimethyl-3H-imidazo[4,5-b]pyridine], the IC50 (in general, the concentration needed to halve the response being measured) was determined as 189 nM.

Take `CCc1nc2c(C)cc(C)nc2n1Cc1ccc(C#CCN2CCC(N3CCCCC3)CC2)cc1` [Example 2, 1′-{3-[4-(2-Ethyl-5,7-dimethyl-imidazo[4,5-b]pyridin-3-ylmethyl)-phenyl]-prop-2-ynyl}-[1,4′]bipiperidine]: the IC50 was 73 nM.

In turn, `CCc1nc2c(C)cc(C)nc2n1Cc1ccc(C#CCN2CCCC2)cc1` [Example 3, 2-Ethyl-5,7-dimethyl-3-[4-(3-pyrrolidin-1-yl-prop-1-ynyl)-benzyl]-3H-imidazo[4,5-b]pyridine] returned a half-inhibitory concentration (IC50) of 584 nM.

`CCc1nc2c(C)cc(C)nc2n1Cc1ccc(C#CCNCCN2CCCC2)cc1` [Example 4, {3-[4-(2-Ethyl-5,7-dimethyl-imidazo[4,5-b]pyridin-3-ylmethyl)-phenyl]-prop-2-ynyl}-(2-pyrrolidin-1-yl-ethyl)-amine]: the midpoint of inhibition, the IC50, lay at 704 nM.

`CCc1nc2c(C)cc(C)nc2n1Cc1ccc(CCN2CCC(N3CCCCC3)CC2)cc1` [Example 5, 1′-{2-[4-(2-Ethyl-5,7-dimethyl-imidazo[4,5-b]pyridin-3-ylmethyl)-phenyl]-ethyl}-[1,4′]bipiperidinyl]: the IC50 came to 227 nM.

The compound `CCc1nc2c(C)cc(C)nc2n1Cc1ccc(CCCN2CCN(C)CC2)cc1` [Example 6, 2-Ethyl-5,7-dimethyl-3-{4-[3-(4-methyl-piperazin-1-yl)-propyl]-benzyl}-3H-imidazo[4,5-b]pyridine dihydrochloride] showed an IC50 of 395 nM.

Take `CCCN1CCN(CCCc2ccc(Cn3c(CC)nc4c(C)cc(C)nc43)cc2)CC1` [Example 7, 2-Ethyl-5,7-dimethyl-3-{4-[3-(4-propyl-piperazin-1-yl)-propyl]-benzyl}-3H-imidazo[4,5-b]pyridine]: the IC50 is 39 nM.

The compound `CCc1nc2c(C)cc(C)nc2n1Cc1ccc(CCCN2CCN(C(C)C)CC2)cc1` [Example 8, 2-Ethyl-3-{4-[3-(4-isopropyl-piperazin-1-yl)-propyl]-benzyl}-5,7-dimethyl-3H-imidazo[4,5-b]pyridine dihydrochloride] gave an IC50 of 274 nM. This IC50 is about 7-fold higher than that of the compound before.

Compound `CCc1nc2c(C)cc(C)nc2n1Cc1ccc(CCCN2CCN(C3CC3)CC2)cc1` [Example 9, 3-{4-[3-(4-Cyclopropyl-piperazin-1-yl)-propyl]-benzyl}-2-ethyl-5,7-dimethyl-3H-imidazo[4,5-b]pyridine] gave an IC50 of 341 nM.

`CCCCN1CCN(CCCc2ccc(Cn3c(CC)nc4c(C)cc(C)nc43)cc2)CC1` [Example 10, 3-{4-[3-(4-Butyl-piperazin-1-yl)-propyl]-benzyl}-2-ethyl-5,7-dimethyl-3H-imidazo[4,5-b]pyridine]: the IC50 stood at 123 nM.

On to `CCc1nc2c(C)cc(C)nc2n1Cc1ccc(CCCN2CCN(C(C)CC)CC2)cc1` (stereo not drawn) [Example 11, 3-{4-[3-(4-sec-Butyl-piperazin-1-yl)-propyl]-benzyl}-2-ethyl-5,7-dimethyl-3H-imidazo[4,5-b]pyridine], for which the IC50 came out at 479 nM.

In the case of `CCc1nc2c(C)cc(C)nc2n1Cc1ccc(CCCN2CCN(C(C)(C)C)CC2)cc1` [Example 12, 3-{4-[3-(4-tert-Butyl-piperazin-1-yl)-propyl]-benzyl}-2-ethyl-5,7-dimethyl-3H-imidazo[4,5-b]pyridine], it took 53 nM to reach half-maximal inhibition (IC50).

Take `CCCCCN1CCN(CCCc2ccc(Cn3c(CC)nc4c(C)cc(C)nc43)cc2)CC1` [Example 13, 2-Ethyl-5,7-dimethyl-3-{4-[3-(4-pentyl-piperazin-1-yl)-propyl]-benzyl}-3H-imidazo[4,5-b]pyridine]: the IC50 was 662 nM.

`CCCC(C)N1CCN(CCCc2ccc(Cn3c(CC)nc4c(C)cc(C)nc43)cc2)CC1` (stereo not drawn) [Example 14, 2-Ethyl-5,7-dimethyl-3-(4-{3-[4-(1-methyl-butyl)-piperazin-1-yl]-propyl}-benzyl)-3H-imidazo[4,5-b]pyridine]: the IC50 turned out to be 217 nM.

In the case of `CCc1nc2c(C)cc(C)nc2n1Cc1ccc(CCCN2CCN(C(CC)CC)CC2)cc1` [Example 15, 2-Ethyl-3-(4-{3-[4-(1-ethyl-propyl)-piperazin-1-yl]-propyl}-benzyl)-5,7-dimethyl-3H-imidazo[4,5-b]pyridine], half-maximal inhibition (IC50) required 50 nM.

Take `CCc1nc2c(C)cc(C)nc2n1Cc1ccc(CCCN2CCN(CCC(C)C)CC2)cc1` [Example 16, 2-Ethyl-5,7-dimethyl-3-(4-{3-[4-(3-methyl-butyl)-piperazin-1-yl]-propyl}-benzyl)-3H-imidazo[4,5-b]pyridine]: half-maximal inhibition (IC50) was put at 283 nM.

For `CCc1nc2c(C)cc(C)nc2n1Cc1ccc(CCCN2CCN(CC3CCC3)CC2)cc1` [Example 17, 3-{4-[3-(4-Cyclobutylmethyl-piperazin-1-yl)-propyl]-benzyl}-2-ethyl-5,7-dimethyl-3H-imidazo[4,5-b]pyridine dihydrochloride], the IC50 came to 178 nM.

In turn, `CCc1nc2c(C)cc(C)nc2n1Cc1ccc(CCCN2CCN(C3CCCC3)CC2)cc1` [Example 18, 3-{4-[3-(4-Cyclopentyl-piperazin-1-yl)-propyl]-benzyl}-2-ethyl-5,7-dimethyl-3H-imidazo[4,5-b]pyridine] had an IC50 of 186 nM.

For the compound `CCc1nc2c(C)cc(C)nc2n1Cc1ccc(CCCN2CCN(C3CCCCC3)CC2)cc1` [Example 19, 3-{4-[3-(4-Cyclohexyl-piperazin-1-yl)-propyl]-benzyl}-2-ethyl-5,7-dimethyl-3H-imidazo[4,5-b]pyridine dihydrochloride], the IC50 worked out at 182 nM.

`CCc1nc2c(C)cc(C)nc2n1Cc1ccc(CCCN2CCN(CCOC)CC2)cc1` [Example 20, 2-Ethyl-3-(4-{3-[4-(2-methoxy-ethyl)-piperazin-1-yl]-propyl}-benzyl)-5,7-dimethyl-3H-imidazo[4,5-b]pyridine dihydrochloride] returned an IC50 of 953 nM.

For `CCc1nc2c(C)cc(C)nc2n1Cc1ccc(CCCN2CCN(CCN(C)C)CC2)cc1` [Example 21, [2-(4-{3-[4-(2-Ethyl-5,7-dimethyl-imidazo[4,5-b]pyridin-3-ylmethyl)-phenyl]-propyl}-piperazin-1-yl)-ethyl]-dimethyl-amine dihydrochloride], the IC50 came to 345 nM. This IC50 is about 2.8-fold lower than that of the compound before.

Compound `CCc1nc2c(C)cc(C)nc2n1Cc1ccc(CCCN2CCN(CC)C(C)C2)cc1` (stereo not drawn) [Example 22, 2-Ethyl-3-{4-[3-(4-ethyl-3-methyl-piperazin-1-yl)-propyl]-benzyl}-5,7-dimethyl-3H-imidazo[4,5-b]pyridine dihydrochloride] had an IC50 of 223 nM. This IC50 lies about 1.5-fold lower than the previous one.

Consider `CCc1nc2c(C)cc(C)nc2n1Cc1ccc(CCCN2CCN(C(C)C)C(C)C2)cc1` (stereo not drawn) [Example 23, 2-Ethyl-3-{4-[3-(4-isopropyl-3-methyl-piperazin-1-yl)-propyl]-benzyl}-5,7-dimethyl-3H-imidazo[4,5-b]pyridine], for which the IC50 was 253 nM.

As to `CCc1nc2c(C)cc(C)nc2n1Cc1ccc(CCCN2CCN(C)C[C@@H]2C(C)C)cc1` [Example 24, 2-Ethyl-3-{4-[3-((S)-2-isopropyl-4-methyl-piperazin-1-yl)-propyl]-benzyl}-5,7-dimethyl-3H-imidazo[4,5-b]pyridine dihydrochloride], the midpoint of inhibition, the IC50, lay at 961 nM. Against the preceding compound, the IC50 is about 3.8-fold higher.

As for `CCc1nc2c(C)cc(C)nc2n1Cc1ccc(CCCN2CCN(C(C)C)C(CC)C2)cc1` (stereo not drawn) [Example 25, 2-Ethyl-3-{4-[3-(3-ethyl-4-isopropyl-piperazin-1-yl)-propyl]-benzyl}-5,7-dimethyl-3H-imidazo[4,5-b]pyridine], the IC50 came to 364 nM. This IC50 lies about 2.6-fold lower than the previous one.

In turn, `CCc1nc2c(C)cc(C)nc2n1Cc1ccc(CCCN2C[C@H]3C[C@@H]2CN3CC)cc1` [Example 26, 2-Ethyl-3-{4-[3-((1R,4R)-5-ethyl-2,5-diaza-bicyclo[2.2.1]hept-2-yl)-propyl]-benzyl}-5,7-dimethyl-3H-imidazo[4,5-b]pyridine] came in with an IC50 of 877 nM.

For `CCc1nc2c(C)cc(C)nc2n1Cc1ccc(CCCN2C[C@H]3C[C@@H]2CN3CC(C)C)cc1` [Example 27, 2-Ethyl-3-{4-[3-((1R,4R)-5-isobutyl-2,5-diaza-bicyclo[2.2.1]hept-2-yl)-propyl]-benzyl}-5,7-dimethyl-3H-imidazo[4,5-b]pyridine dihydrochloride], the half-maximal inhibitory concentration (IC50) stood at 411 nM.

`CCc1nc2c(C)cc(C)nc2n1Cc1ccc(CCCN2C[C@H]3C[C@@H]2CN3CC2CC2)cc1` [Example 28, 3-{4-[3-((1R,4R)-5-Cyclopropylmethyl-2,5-diaza-bicyclo[2.2.1]hept-2-yl)-propyl]-benzyl}-2-ethyl-5,7-dimethyl-3H-imidazo[4,5-b]pyridine] gave an IC50 of 436 nM.

The compound `Cc1cc(C)c2nc(C)n(Cc3ccc(/C=C/CN4CCC(N5CCCCC5)CC4)cc3)c2n1` [Example 30, 1′-{(E)-3-[4-(2,5,7-Trimethyl-imidazo[4,5-b]pyridin-3-ylmethyl)-phenyl]-allyl}-[1,4′]bipiperidinyl] came in with an IC50 of 94 nM.

In turn, `CCc1nc2c(C)cc(C)nc2n1Cc1ccc(/C=C/CN2CCC(N(CC)CC)CC2)cc1` [Example 31, Diethyl-(1-{(E)-3-[4-(2-ethyl-5,7-dimethyl-imidazo[4,5-b]pyridin-3-ylmethyl)-phenyl]-allyl}-piperidin-4-yl)-amine dihydrochloride] registered an IC50 of 144 nM.
